# Key:
# [1] = system: Lateral Amygdala glutamatergic neuron; assay: whole cell, current clamp recordings, square pulse at high depolarization, mouse brain slice; assay type: cell-based; settings: for action potentials at higher stimulation levels / amount of current required to trigger an action potential / threshold to trigger an action potential: as summarised from the experimental results; for amount of current required to trigger an action potential / threshold to trigger an action potential: neocortex; for inactivation of the sodium fast channels / further neuronal firing relative to control: square pulse of 2.5s at high depolarization of membrane potential (approximately −30 mV), FIG. 2
# From the text: (§1) A mouse brain slice was used to study the damage from Menthol, Linalool and Icilin. The amygdaloid complex is located within the medial temporal lobe in neocortex and amygdala. The lateral and basolateral nuclei of the amygdaloid complex receive sensory information from cortical and thalamic structures, process the information, and then transmit the information, either directly or through the basal nucleus, to the central nucleus. For experimental analysis of neuronal activity, synaptic responses from the basolateral complex can be evoked electrically using electrodes, and the action potentials can be measured. […] A square pulse of 2.5s was applied at high depolarization of membrane potential (approximately −30 mV).
# [2] = system: Lateral Amygdala glutamatergic neuron; assay: whole cell, current clamp recordings with increasing concentration of gabazine (spontaneous action potential bursts), mouse brain slice; assay type: cell-based; settings: Menthol 250 μM extracellularly 10 minutes previous to and during increasing concentrations of gabazine; recordings of 5 min, washout 10 min; FIG. 5 vs FIG. 3
# From the text: as §1, with “As shown, neurons spontaneously present action” for “A square pulse of 2.5s was applied at high depolarization of membrane”, “bursts due to massive presynaptic discharges.” for “(approximately −30 mV).”
SMILES,action potentials at higher stimulation levels [1],amount of current required to trigger an action potential [1],threshold to trigger an action potential [1],inactivation of the sodium fast channels / further neuronal firing relative to control [1],spontaneous action potential bursts under gabazine [2]
O=C1NC(c2cccc([N+](=O)[O-])c2)=CCN1c1ccccc1O [Icilin],abort action potentials at higher stimulation levels,increase the amount of current required to trigger an action potential,increase the threshold to trigger an action potential,inactivation of the sodium fast channels happens sooner relative to control,–
C=CC(C)(O)CCC=C(C)C (stereo not shown) [Linalool],abort action potentials at higher stimulation levels,increase the amount of current required to trigger an action potential,increase the threshold to trigger an action potential,inactivation of the sodium fast channels happens sooner relative to control,–
CC1CCC(C(C)C)C(O)C1 (stereo not shown) [Menthol],abort action potentials at higher stimulation levels,increase the amount of current required to trigger an action potential,increase the threshold to trigger an action potential,inactivation of the sodium fast channels happens sooner relative to control,complete absence or a strongly decreased presence of spontaneous bursts
